The target in this experiment is T1, Syk kinase (Homo sapiens, UniProt P43405).
T1 construct: purchased Invitrogen PV3857
The experiment is described as follows: In vitro inhibitory effect on Syk kinase (HTRF enzymatic experiment). The experiment is classed as biochemical. The note with it: ATP 2 μM, read-out: IC50 (nM) for inhibition of Syk enzyme. The text has this:
The interaction between the substrate and the enzyme was detected by HTRF, using the IC50 value of the compound as an indicator to evaluate the inhibitory effect of the compound on Syk kinase.
• Syk kinase (Invitrogen, PV3857) • DTT (Sigma #43815) • ATP (Sigma #A7699) • MgCl2 (Sigma #63020) • MnCl2 (Sigma #M1787) • EDTA (Invitrogen #15575-020) • HEPES Buffer (Invitrogen #15630-080) • HTRF® KinEASE™ TK (Cisbio #62TKOPEC, 20000 tests) • Low volume, 384-well, white polystyrene plate (Greiner #784075) • 384 Well Microplates (Greiner #781946) • Centrifuge (Eppendorf #5810R) • Pipette (Eppendorf) • Pipette (Greiner) • Pipette gun (Eppendorf) • Mutidorp Pipette • POD 810 Plate Assembler Automatic Microplate Pretreatment System • Envision Reader • Experimental Steps and Methods: • a) Compound dilution and plate-making: • 1) The compound powder was weighed, dissolved in a certain amount of DMSO at an initial concentration of 10 mM. • 2) The compound was diluted to a concentration of 0.74 mM, and plated with POD18, 135 nL per well, the starting compound concentration was 10 μM, and there were 11 concentration points, with 3-fold descending serial dilutions. • b) Enzyme-substrate reaction stage: • 1) Preparation and dilution of the experimental buffer: the 5×HTRF Buffer in the kit was diluted to 1×, and specified amounts of DTT and MgCl2 solutions were added for use. • 2) SYK enzyme reaction solution was prepared with 1×HTRF Buffer so that the final reaction concentration of SYK kinase was 0.0156 ng/μL. • 3) TK-Substrate-biotin/ATP mixture was prepared so that the final substrate concentration was controlled at 0.2 μM. ATP concentration was controlled at 2 μM. • 4) The solution and the mixture were added with a Mutidorp pipette, SYK enzyme solution and TK-Substrate-biotin/ATP mixture were each added 5 μL per well, and incubated with 23 solution for 1 hour. • c) Detection stage: • 1) 13.33 mL of ethylenediaminetetraacetic acid solution was added to the detection buffer of the kit, and specified amounts of Eu-labeled antibody and XL-665 were added to prepare the detection solution. • 2) The solution was added with a Mutidorp pipette, 10 μL of detection solution per well, and incubated with 23 solution for 1 hour. The reaction of the enzyme and substrate mixture was stopped. • 3) After centrifugation, the reading was obtained on Envision. • d) Data analyzation: the data was analyzed using XL-Fit and the IC50 value of the compound was calculated.
Background: TR-FRET usually uses a lanthanide donor and a delayed reading to cut background.

For orientation: IC50 means the midpoint of a concentration-inhibition curve.

Turning to `c1cn2c(n1)c(Nc1ccc(N3CCOCC3)cc1)nc1ccc(-c3cn[nH]c3)cc12` [Compound 1], the IC50 came out at 15 nM.

The record behind these values is patent US12637469B2, “1H-pyrazole derivative and application thereof as dual target inhibitor of Syk and VEGFR2” (Ocumension Therapeutics (Suzhou) Co., Ltd., priority 2020, dated 2026).
